Legend:
[1] = tested on: Tyrosine-protein kinase ABL1 (Homo sapiens), P00519 [E255K]; conditions: Compound concentration 1000.0 nM
[2] = tested on: Tyrosine-protein kinase ABL1 (Homo sapiens), P00519 [T315I]; conditions: Compound concentration 1000.0 nM
[3] = tested on: ALK tyrosine kinase receptor (Homo sapiens), Q9UM73 [C1156Y]; conditions: Compound concentration 1000.0 nM
[4] = target: Tyrosine-protein kinase CSK (Homo sapiens) (UniProt P41240); conditions: Compound concentration 1000.0 nM
[5] = target: T1, Ephrin type-A receptor 8 (Homo sapiens) (UniProt P29322); conditions: Compound concentration 1000.0 nM
T1 sequence (whole entry): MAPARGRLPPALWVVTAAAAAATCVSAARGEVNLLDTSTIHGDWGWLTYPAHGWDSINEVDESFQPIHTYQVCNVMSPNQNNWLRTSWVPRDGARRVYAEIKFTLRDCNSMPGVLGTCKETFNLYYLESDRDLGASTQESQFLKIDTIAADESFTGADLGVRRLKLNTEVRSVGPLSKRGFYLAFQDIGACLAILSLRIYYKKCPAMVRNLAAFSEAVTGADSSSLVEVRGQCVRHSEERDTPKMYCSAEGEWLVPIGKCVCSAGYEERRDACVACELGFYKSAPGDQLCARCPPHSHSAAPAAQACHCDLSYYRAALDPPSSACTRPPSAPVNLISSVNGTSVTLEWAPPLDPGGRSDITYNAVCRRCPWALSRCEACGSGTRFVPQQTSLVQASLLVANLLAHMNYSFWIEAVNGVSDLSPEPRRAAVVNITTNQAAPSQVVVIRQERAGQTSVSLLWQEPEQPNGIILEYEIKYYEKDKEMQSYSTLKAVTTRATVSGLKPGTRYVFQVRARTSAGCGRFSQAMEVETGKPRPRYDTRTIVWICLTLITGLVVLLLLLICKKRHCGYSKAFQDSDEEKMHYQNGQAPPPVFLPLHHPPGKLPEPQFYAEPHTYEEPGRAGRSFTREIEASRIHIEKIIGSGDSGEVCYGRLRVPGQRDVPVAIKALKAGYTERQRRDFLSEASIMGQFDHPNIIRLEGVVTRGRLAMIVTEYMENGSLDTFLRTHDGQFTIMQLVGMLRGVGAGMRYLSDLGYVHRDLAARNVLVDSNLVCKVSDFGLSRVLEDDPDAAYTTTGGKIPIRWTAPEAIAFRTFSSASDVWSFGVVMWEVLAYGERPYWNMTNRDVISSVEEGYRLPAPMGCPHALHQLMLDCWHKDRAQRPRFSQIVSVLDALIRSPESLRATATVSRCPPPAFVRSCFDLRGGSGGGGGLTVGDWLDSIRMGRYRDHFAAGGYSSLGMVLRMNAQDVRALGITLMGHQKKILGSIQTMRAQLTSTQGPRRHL

[6] = target: Homeodomain-interacting protein kinase 3 (Homo sapiens) (UniProt Q9H422); conditions: Compound concentration 1000.0 nM
[7] = target: T2, Serine/threonine-protein kinase 3 (Homo sapiens) (UniProt Q13188); conditions: Compound concentration 1000.0 nM
T2 sequence (whole entry): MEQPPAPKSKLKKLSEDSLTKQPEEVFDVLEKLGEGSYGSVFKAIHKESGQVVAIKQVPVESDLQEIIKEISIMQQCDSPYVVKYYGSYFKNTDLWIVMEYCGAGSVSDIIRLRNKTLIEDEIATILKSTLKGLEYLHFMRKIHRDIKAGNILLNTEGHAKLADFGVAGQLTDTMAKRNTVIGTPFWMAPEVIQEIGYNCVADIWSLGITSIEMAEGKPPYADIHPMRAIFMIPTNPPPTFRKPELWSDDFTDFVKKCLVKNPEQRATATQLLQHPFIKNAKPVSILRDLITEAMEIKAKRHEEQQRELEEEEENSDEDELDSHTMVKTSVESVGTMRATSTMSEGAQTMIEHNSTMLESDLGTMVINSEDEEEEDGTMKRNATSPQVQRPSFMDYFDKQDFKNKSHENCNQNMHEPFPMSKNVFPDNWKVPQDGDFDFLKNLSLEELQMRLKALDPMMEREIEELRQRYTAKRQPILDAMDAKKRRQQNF

[8] = target: Myosin light chain kinase, smooth muscle (Homo sapiens) (UniProt Q15746); conditions: Compound concentration 1000.0 nM
[9] = target: Serine/threonine-protein kinase PLK2 (Homo sapiens) (UniProt Q9NYY3); conditions: Compound concentration 1000.0 nM
[10] = target: Rho-associated protein kinase 1 (Homo sapiens) (UniProt Q13464); conditions: Compound concentration 1000.0 nM
[11] = target: Ribosomal protein S6 kinase alpha-1 (Homo sapiens) (UniProt Q15418); conditions: Compound concentration 1000.0 nM
[12] = target: Proto-oncogene tyrosine-protein kinase Src (Homo sapiens) (UniProt P12931); conditions: Compound concentration 1000.0 nM
[13] = target: Non-receptor tyrosine-protein kinase TYK2 (Homo sapiens) (UniProt P29597); conditions: Compound concentration 1000.0 nM
Rattus norvegicus = species: Rattus norvegicus; conditions: Compound concentration 10.0 uM

Sequence of ALK tyrosine kinase receptor (Homo sapiens), Q9UM73 [C1156Y] (Q9UM73 whole entry C1156Y, looked up): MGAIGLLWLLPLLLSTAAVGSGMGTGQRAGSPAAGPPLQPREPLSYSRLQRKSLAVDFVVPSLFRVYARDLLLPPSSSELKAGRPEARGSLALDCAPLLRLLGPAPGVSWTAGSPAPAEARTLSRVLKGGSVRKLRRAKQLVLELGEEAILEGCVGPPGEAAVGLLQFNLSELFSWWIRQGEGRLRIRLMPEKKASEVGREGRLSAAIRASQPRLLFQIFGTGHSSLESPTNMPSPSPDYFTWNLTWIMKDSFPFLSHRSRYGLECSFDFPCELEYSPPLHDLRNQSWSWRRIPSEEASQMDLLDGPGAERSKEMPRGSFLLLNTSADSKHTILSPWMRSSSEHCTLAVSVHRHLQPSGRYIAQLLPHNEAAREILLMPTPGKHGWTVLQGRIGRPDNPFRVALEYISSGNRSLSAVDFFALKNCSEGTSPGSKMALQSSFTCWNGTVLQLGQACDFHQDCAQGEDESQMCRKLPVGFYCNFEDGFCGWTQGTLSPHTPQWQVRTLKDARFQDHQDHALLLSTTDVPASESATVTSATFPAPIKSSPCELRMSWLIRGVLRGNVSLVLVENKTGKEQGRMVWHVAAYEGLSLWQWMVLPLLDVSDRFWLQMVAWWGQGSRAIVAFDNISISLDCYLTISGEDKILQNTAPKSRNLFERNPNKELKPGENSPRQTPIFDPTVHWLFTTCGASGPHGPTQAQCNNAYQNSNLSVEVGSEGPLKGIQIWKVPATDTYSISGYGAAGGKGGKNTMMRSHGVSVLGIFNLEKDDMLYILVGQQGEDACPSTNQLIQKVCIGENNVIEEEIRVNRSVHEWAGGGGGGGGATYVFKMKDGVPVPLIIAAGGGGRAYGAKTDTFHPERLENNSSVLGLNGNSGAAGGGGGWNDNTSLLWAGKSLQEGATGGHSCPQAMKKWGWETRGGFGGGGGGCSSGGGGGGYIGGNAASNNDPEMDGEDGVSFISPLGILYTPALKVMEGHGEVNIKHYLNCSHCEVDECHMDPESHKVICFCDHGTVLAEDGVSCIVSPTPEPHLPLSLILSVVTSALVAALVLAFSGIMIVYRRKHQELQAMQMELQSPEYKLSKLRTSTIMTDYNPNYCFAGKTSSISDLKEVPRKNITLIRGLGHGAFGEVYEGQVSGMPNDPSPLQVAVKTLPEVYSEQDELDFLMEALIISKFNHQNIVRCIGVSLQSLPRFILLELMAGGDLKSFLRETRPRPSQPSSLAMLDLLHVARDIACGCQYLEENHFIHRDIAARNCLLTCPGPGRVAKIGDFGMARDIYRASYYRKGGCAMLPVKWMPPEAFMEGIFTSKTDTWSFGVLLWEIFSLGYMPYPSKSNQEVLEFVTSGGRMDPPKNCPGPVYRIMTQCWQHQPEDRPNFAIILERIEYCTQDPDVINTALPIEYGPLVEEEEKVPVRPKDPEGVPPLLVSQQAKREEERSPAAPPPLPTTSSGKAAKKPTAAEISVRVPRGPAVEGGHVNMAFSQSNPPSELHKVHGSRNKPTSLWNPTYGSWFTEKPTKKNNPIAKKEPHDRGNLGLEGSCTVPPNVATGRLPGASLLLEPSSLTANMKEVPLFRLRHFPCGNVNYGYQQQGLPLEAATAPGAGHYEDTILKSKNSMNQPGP
Sequence of Proto-oncogene tyrosine-protein kinase Src (Homo sapiens) (P12931 2-536 limits assumed): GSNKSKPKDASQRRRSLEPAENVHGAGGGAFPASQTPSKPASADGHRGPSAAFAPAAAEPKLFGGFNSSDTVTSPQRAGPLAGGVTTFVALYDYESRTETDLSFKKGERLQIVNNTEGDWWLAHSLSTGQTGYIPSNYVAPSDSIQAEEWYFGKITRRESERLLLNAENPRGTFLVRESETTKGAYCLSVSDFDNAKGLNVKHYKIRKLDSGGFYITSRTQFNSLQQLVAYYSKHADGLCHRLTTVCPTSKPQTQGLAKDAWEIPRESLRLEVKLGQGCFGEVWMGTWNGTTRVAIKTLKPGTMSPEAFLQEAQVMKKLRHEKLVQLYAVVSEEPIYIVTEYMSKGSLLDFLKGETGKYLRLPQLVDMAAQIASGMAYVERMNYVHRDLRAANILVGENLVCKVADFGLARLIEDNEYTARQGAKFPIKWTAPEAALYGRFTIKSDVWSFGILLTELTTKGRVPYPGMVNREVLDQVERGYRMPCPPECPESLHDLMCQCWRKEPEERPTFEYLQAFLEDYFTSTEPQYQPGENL
Sequence of Ribosomal protein S6 kinase alpha-1 (Homo sapiens) (Q15418 whole entry): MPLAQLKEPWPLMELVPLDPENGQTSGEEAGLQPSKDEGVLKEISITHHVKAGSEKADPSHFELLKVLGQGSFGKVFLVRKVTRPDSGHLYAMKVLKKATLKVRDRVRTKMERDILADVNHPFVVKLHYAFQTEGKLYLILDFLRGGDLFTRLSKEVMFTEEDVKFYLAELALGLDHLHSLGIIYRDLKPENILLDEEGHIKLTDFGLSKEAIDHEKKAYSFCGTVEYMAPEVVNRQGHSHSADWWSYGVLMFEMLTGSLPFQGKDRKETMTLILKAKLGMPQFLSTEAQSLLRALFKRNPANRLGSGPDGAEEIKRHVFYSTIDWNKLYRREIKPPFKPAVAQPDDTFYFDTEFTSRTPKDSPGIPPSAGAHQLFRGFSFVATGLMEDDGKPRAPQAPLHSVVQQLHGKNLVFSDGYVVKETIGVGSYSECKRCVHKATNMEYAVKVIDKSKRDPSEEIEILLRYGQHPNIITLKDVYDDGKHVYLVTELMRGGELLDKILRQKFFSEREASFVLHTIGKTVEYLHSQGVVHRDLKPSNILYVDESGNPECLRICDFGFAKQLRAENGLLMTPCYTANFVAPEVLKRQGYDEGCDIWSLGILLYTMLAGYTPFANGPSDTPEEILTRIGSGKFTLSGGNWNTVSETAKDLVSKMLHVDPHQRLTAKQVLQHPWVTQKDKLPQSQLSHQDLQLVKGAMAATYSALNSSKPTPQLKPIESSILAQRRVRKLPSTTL
Sequence of Myosin light chain kinase, smooth muscle (Homo sapiens) (Q15746 whole entry): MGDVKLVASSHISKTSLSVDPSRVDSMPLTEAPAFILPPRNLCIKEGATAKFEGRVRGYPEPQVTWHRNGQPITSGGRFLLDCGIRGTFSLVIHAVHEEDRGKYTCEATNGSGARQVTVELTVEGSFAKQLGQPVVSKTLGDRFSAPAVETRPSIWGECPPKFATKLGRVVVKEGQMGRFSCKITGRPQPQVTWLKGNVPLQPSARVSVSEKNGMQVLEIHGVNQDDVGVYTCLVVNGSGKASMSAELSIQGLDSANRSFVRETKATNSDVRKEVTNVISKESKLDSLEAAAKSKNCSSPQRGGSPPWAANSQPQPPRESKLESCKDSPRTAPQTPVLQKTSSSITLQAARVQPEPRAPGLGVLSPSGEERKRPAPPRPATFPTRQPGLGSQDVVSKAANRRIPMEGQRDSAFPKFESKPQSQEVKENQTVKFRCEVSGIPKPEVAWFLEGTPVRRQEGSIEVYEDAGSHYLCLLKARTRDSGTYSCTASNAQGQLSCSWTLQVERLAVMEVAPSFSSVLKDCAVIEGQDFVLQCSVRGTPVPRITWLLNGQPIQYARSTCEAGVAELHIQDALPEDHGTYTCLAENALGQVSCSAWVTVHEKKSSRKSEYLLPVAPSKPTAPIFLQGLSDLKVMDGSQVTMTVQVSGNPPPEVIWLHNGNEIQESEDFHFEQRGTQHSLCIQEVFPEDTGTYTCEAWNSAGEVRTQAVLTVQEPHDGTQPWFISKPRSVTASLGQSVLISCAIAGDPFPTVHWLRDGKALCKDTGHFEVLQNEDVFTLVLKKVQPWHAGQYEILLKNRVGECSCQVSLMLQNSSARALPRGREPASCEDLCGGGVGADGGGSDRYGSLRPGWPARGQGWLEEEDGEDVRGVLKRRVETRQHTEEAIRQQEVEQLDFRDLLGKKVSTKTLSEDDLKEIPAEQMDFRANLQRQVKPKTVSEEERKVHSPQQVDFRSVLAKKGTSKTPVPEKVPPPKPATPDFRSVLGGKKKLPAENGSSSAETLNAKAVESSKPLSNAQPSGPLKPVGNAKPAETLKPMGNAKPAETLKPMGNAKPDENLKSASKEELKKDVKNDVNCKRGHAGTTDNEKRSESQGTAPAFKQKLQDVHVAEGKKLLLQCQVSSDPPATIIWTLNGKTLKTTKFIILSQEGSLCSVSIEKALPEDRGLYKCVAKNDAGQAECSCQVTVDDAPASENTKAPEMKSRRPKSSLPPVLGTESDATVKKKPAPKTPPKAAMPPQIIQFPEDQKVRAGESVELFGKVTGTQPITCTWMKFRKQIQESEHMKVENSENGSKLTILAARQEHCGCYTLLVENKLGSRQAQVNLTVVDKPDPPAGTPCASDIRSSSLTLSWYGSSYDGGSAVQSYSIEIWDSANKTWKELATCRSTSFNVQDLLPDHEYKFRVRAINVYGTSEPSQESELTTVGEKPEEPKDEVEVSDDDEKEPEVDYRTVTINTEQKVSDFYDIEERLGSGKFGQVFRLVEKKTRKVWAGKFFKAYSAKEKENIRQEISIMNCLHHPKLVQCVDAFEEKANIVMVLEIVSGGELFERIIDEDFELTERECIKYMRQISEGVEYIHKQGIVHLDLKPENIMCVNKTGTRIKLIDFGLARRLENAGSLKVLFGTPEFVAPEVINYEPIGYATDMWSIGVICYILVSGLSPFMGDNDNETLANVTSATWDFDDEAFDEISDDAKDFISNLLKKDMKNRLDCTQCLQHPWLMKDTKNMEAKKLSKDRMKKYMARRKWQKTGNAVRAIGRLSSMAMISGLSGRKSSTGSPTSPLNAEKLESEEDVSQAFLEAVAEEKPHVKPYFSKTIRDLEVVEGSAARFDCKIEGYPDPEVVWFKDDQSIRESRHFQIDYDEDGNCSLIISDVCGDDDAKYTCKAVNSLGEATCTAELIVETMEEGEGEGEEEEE

CN(C)C(=O)Cn1cc(-c2nc(C3(c4ccc(-c5cnc(N)nc5)cc4)CC3)no2)cn1 [BI 0153]
inactive: residual activity [1] 100% | residual activity [2] 82% | residual activity [3] 100% | residual activity [4] 100% | residual activity [5] 87% | residual activity [6] 71% | residual activity [7] 100% | residual activity [8] 72% | residual activity [9] 93% | residual activity [10] 83% | residual activity [11] 99% | residual activity [12] 84% | residual activity [13] 90% | inhibition (Rattus norvegicus) 7.97%

CN(C)C(=O)Cn1cc(-c2nc([C@@](C)(c3ccc(-c4cnc(N)nc4)cc3)C3CC3)no2)cn1 [BI 665915]
inactive: residual activity [1] 95% | residual activity [2] 86% | residual activity [3] 98% | residual activity [4] 100% | residual activity [5] 100% | residual activity [6] 97% | residual activity [7] 100% | residual activity [8] 84% | residual activity [9] 56% | residual activity [10] 97% | residual activity [11] 93% | residual activity [12] 90% | residual activity [13] 65% | inhibition (Rattus norvegicus) 1.51%

Reference: ChEMBL document CHEMBL4507276 (2021)
